In this assay the target is T1, IRAK4 (Homo sapiens, UniProt Q9NWZ3).
T1 construct: endogenous in cells; host or cells: Karpas299
T1 sequence (Q9NWZ3 1-460): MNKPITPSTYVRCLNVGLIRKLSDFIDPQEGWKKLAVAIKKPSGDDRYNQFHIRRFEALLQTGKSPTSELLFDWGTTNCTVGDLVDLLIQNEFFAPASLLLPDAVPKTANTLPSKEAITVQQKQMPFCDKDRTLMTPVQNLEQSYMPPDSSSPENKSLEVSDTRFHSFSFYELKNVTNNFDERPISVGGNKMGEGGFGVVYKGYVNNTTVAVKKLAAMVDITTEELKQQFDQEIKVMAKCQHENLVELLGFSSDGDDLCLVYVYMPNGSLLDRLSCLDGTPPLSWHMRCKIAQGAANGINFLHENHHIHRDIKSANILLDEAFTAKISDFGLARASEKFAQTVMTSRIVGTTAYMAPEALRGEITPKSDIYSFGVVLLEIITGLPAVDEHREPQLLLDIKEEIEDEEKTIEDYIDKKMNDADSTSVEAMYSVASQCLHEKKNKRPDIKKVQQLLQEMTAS
As to the kind of experiment: IRAK4 Degradation Assay (Karpas299, HTRF/TR-FRET). It is filed as cell-based. An outline of the steps: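 Compound potency as DC50 (IC50) came from four-parameter fits of percent IRAK4 degradation. IRAK4 was measured by HTRF (665/620 nm) in lysates of Karpas299 cells seeded at 0.2 million per well. Cells had been treated with compound dilutions for 5 or 24 h.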
Background: In TR-FRET formats the signal depends on donor and acceptor labels being close together.

[1] abbreviates: Karpas-299 cells, 24 h treatment, maximum percentage of degradation, read-out: IRAK4 in Karpas-299 (24 h) Dmax (%).
Where [2] appears, read: Karpas-299 cells, 24 h treatment, read-out: IRAK4 in Karpas-299 (24 h) DC50.

This is an account of results in patent US20250195513A1, “DEGRADATION OF IRAK4 BY CONJUGATION OF IRAK4 INHIBITORS WITH E3 LIGASE LIGAND AND METHODS OF USE” (BeiGene, Ltd., priority 2022, published 2025).

Molecules are shown by their SMILES. Where two headings read alike, the source gives them in different places.

In general, Dmax refers to the greatest extent of degradation seen. What is called DC50 is the midpoint of the concentration-degradation curve. Turning to `CC(C)(O)c1cc2nn(C3CCN([C@@H]4CCN(C(=O)C5CN(c6cc(F)c(N7CCC(=O)NC7=O)c(F)c6)C5)CC4(F)F)CC3)cc2cc1NC(=O)c1ccc2cc(C#N)cnn12` [Example 198, (R)-3-cyano-N-(2-(1′-(1-(4-(2,4-dioxotetrahydropyrimidin-1(2H)-yl)-3,5-difluorophenyl)azetidine-3-carbonyl)-3′,3′-difluoro-[1,4′-bipiperidin]-4-yl)-6-(2-hydroxypropan-2-yl)-2H-indazol-5-yl)pyrrolo[1,2-b]pyridazine-7-carboxamide], the Dmax under setting [1] was determined as 93%. In addition, the 50% degradation concentration (DC50) under setting [2] amounted to 9 nM.
On the same counts, the results for `O=C1CC[C@H](c2c(F)cc(N3CCC(CN4CCN([C@H]5CC[C@H](n6cc(NC(=O)c7coc(-c8ccnc(NCC(F)(F)F)c8)n7)c(C(F)F)n6)CC5)CC4)CC3)cc2F)C(=O)N1` [Example 20, N-(3-(difluoromethyl)-1-((1r,4r)-4-(4-((1-(4-((R)-2,6-dioxopiperidin-3-yl)-3,5-difluorophenyl)piperidin-4-yl)methyl)piperazin-1-yl)cyclohexyl)-1H-pyrazol-4-yl)-2-(2-((2,2,2-trifluoroethyl)amino)pyridin-4-yl)oxazole-4-carboxamide] are 97% and 4.8 nM.
For `O=C1CC[C@H](c2c(F)cc(N3CC(C(=O)N4CCN([C@H]5CC[C@H](n6cc7cc(NC(=O)c8cccc(C(F)(F)F)n8)c(C(=O)NC8CC8)cc7n6)CC5)CC4)C3)cc2F)C(=O)N1` [Example 130], under setting [1], the Dmax worked out at 98%. Under setting [2], the half-maximal degradation concentration (DC50) was determined as 0.5 nM.
On the same counts, the results for `O=C1CC[C@H](c2c(F)cc(N3CC(C(=O)N4CCN([C@H]5CC[C@H](n6cc(NC(=O)c7coc(-c8ccnc(NCC9CC9)c8)n7)c(C(F)F)n6)CC5)C(=O)C4)C3)cc2F)C(=O)N1` [Example 100, 2-(2-((cyclopropylmethyl)amino)pyridin-4-yl)-N-(3-(difluoromethyl)-1-((1r,4r)-4-(4-(1-(4-((R)-2,6-dioxopiperidin-3-yl)-3,5-difluorophenyl)azetidine-3-carbonyl)-2-oxopiperazin-1-yl)cyclohexyl)-1H-pyrazol-4-yl)oxazole-4-carboxamide] are 97% and 2.2 nM.
Regarding `CC(C)(O)c1cc2nn(C3CCN(C4CCN(C(=O)[C@@H]5CCN(c6ccc(N7CCC(=O)NC7=O)cc6)C5)CC4)CC3)cc2cc1NC(=O)c1cccc(C(F)(F)F)n1` [Example 162, (R)—N-(2-(1′-(1-(4-(2,4-dioxotetrahydropyrimidin-1(2H)-yl)phenyl)pyrrolidine-3-carbonyl)-[1,4′-bipiperidin]-4-yl)-6-(2-hydroxypropan-2-yl)-2H-indazol-5-yl)-6-(trifluoromethyl)picolinamide], the Dmax under setting [1] is 96%. Also, under setting [2], the DC50 was 5.7 nM.
As to `COc1cc2nn([C@H]3CC[C@H](CN4CCN(C(=O)C5CN(c6ccc(N7CCC(=O)NC7=O)cc6)C5)CC4)CC3)cc2cc1NC(=O)c1cccc(C(F)(F)F)n1` [Example 5, N-(2-((1r,4r)-4-((4-(1-(4-(2,4-dioxotetrahydropyrimidin-1(2H)-yl)phenyl)azetidine-3-carbonyl)piperazin-1-yl)methyl)cyclohexyl)-6-methoxy-2H-indazol-5-yl)-6-(trifluoromethyl)picolinamide], the DC50 was 14 nM (Degradation (Karpas-299), comparison table, Linker Type A, read-out: Compound (Linker Type A) DC50) and 14 nM under setting [2]. For the same compound, the Dmax runs as follows: (Degradation (Karpas-299), comparison table, Linker Type A, read-out: Compound (Linker Type A) Dmax (%)) 92%; under setting [1], 92%.
In the case of `CC(C)(O)c1cc2nn([C@H]3CC[C@H](N4CCN(C5CCN(c6cc(F)c([C@H]7CCC(=O)NC7=O)c(F)c6)CC5)CC4)CC3)cc2cc1NC(=O)c1cccc(C(F)(F)F)n1` [Example 99, N-(2-((1r,4r)-4-(4-(1-(4-((R)-2,6-dioxopiperidin-3-yl)-3,5-difluorophenyl)piperidin-4-yl)piperazin-1-yl)cyclohexyl)-6-(2-hydroxypropan-2-yl)-2H-indazol-5-yl)-6-(trifluoromethyl)picolinamide], the Dmax under setting [1] was 99%. For the same compound, the DC50 under setting [2] stood at 0.4 nM.
`NC(=O)c1nn([C@H]2CC[C@H](N3CCN(C(=O)C4CN(c5ccc(N6CCC(=O)NC6=O)cc5)C4)CC3)CC2)cc1NC(=O)c1coc(-c2ccnc(NCC(F)(F)F)c2)n1` [Example 8, N-(3-carbamoyl-1-((1r,4r)-4-(4-(1-(4-(2,4-dioxotetrahydropyrimidin-1(2H)-yl)phenyl)azetidine-3-carbonyl)piperazin-1-yl)cyclohexyl)-1H-pyrazol-4-yl)-2-(2-((2,2,2-trifluoroethyl)amino)pyridin-4-yl)oxazole-4-carboxamide]: the Dmax under setting [1] came out at 97%. The DC50 under setting [2] was determined as 2.1 nM.
For the compound `CC(C)(O)c1cc2nn([C@H]3CC[C@H](N4CCN(C(=O)C5CN(c6cc(F)c([C@H]7CCC(=O)NC7=O)c(F)c6)C5)CC4)CC3)cc2cc1NC(=O)c1cnn2cc(C#N)cnc12` [Example 411, 6-cyano-N-(2-((1r,4r)-4-(4-(1-(4-((R)-2,6-dioxopiperidin-3-yl)-3,5-difluorophenyl)azetidine-3-carbonyl)piperazin-1-yl)cyclohexyl)-6-(2-hydroxypropan-2-yl)-2H-indazol-5-yl)pyrazolo[1,5-a]pyrimidine-3-carboxamide], the Dmax under setting [1] stood at 9%. For the same compound, under setting [2], the DC50 was more than 10000 nM.
In the case of `CC(C)(O)c1cc2nn([C@H]3CC[C@H](CN4CCN(C5CN(c6cc(F)c([C@H]7CCC(=O)NC7=O)c(F)c6)C5)CC4)CC3)cc2cc1NC(=O)c1csc(-c2cn[nH]c2)n1` [Example 433, N-(2-((1r,4r)-4-((4-(1-(4-((R)-2,6-dioxopiperidin-3-yl)-3,5-difluorophenyl)azetidin-3-yl)piperazin-1-yl)methyl)cyclohexyl)-6-(2-hydroxypropan-2-yl)-2H-indazol-5-yl)-2-(1H-pyrazol-4-yl)thiazole-4-carboxamide], under setting [1], the Dmax was 99%. For the same compound, the DC50 under setting [2] worked out at 0.2 nM.
Regarding `O=C1CC[C@H](c2c(F)cc(N3CC[C@@H](C(=O)N4CCN([C@H]5CC[C@H](n6cc7cc(NC(=O)c8cccc(C(F)(F)F)n8)c(C(=O)NC8CC8)cc7n6)CC5)CC4)C3)cc2F)C(=O)N1` [Example 129, N-cyclopropyl-2-((1R,4r)-4-(4-((R)-1-(4-((R)-2,6-dioxopiperidin-3-yl)-3,5-difluorophenyl)pyrrolidine-3-carbonyl)piperazin-1-yl)cyclohexyl)-5-(6-(trifluoromethyl)picolinamido)-2H-indazole-6-carboxamide], under setting [1], the Dmax is 99%. In addition, the DC50 under setting [2] was 1.9 nM.
As for `CC(C)(O)c1cc2nn(C3CCN(C4CCN(C(=O)[C@H]5CCN(c6ccc(N7CCC(=O)NC7=O)cc6)C5)CC4)CC3)cc2cc1NC(=O)c1cccc(C(F)(F)F)n1` [Example 163, (S)—N-(2-(1′-(1-(4-(2,4-dioxotetrahydropyrimidin-1(2H)-yl)phenyl)pyrrolidine-3-carbonyl)-[1,4′-bipiperidin]-4-yl)-6-(2-hydroxypropan-2-yl)-2H-indazol-5-yl)-6-(trifluoromethyl)picolinamide], under setting [1], the Dmax stood at 95%. Moreover, the half-maximal degradation concentration (DC50) under setting [2] turned out to be 3.8 nM.
On the same counts, the results for `O=C1CC[C@H](c2c(F)cc(N3CC(CN4CCN([C@H]5CC[C@H](n6cc(NC(=O)c7coc(-c8ccnc(NCC(F)(F)F)c8)n7)c(C(F)F)n6)CC5)CC4)C3)cc2F)C(=O)N1` [Example 19, N-(3-(difluoromethyl)-1-((1r,4r)-4-(4-((1-(4-((R)-2,6-dioxopiperidin-3-yl)-3,5-difluorophenyl)azetidin-3-yl)methyl)piperazin-1-yl)cyclohexyl)-1H-pyrazol-4-yl)-2-(2-((2,2,2-trifluoroethyl)amino)pyridin-4-yl)oxazole-4-carboxamide] are 95% and 1 nM.
On the same counts, the results for `O=C1CCN(c2ccc(N3CC[C@H](C(=O)N4CCN([C@H]5CC[C@H](n6cc(NC(=O)c7coc(-c8ccnc(NCC(F)(F)F)c8)n7)c(C(F)F)n6)CC5)CC4)C3)cc2)C(=O)N1` [Example 15, N-(3-(difluoromethyl)-1-((1S,4r)-4-(4-((S)-1-(4-(2,4-dioxotetrahydropyrimidin-1(2H)-yl)phenyl)pyrrolidine-3-carbonyl)piperazin-1-yl)cyclohexyl)-1H-pyrazol-4-yl)-2-(2-((2,2,2-trifluoroethyl)amino)pyridin-4-yl)oxazole-4-carboxamide] are 30% and more than 10000 nM.
`CC(C)(O)c1cc2nn([C@H]3CC[C@H](N4CCN(C(=O)[C@@H]5CCN(c6cc(F)c([C@H]7CCC(=O)NC7=O)c(F)c6)C5)CC4)CC3)cc2cc1NC(=O)c1cccc(C(F)(F)F)n1` [Example 39, N-(2-((1R,4r)-4-(4-((R)-1-(4-((R)-2,6-dioxopiperidin-3-yl)-3,5-difluorophenyl)pyrrolidine-3-carbonyl)piperazin-1-yl)cyclohexyl)-6-(2-hydroxypropan-2-yl)-2H-indazol-5-yl)-6-(trifluoromethyl)picolinamide]: the maximal degradation (Dmax) (Karpas-299 cells, 5 h treatment, maximum percentage of degradation, read-out: IRAK4 in Karpas-299 (5 h) Dmax (%)) was determined as 96% and the Dmax under setting [1] is 99%. For the same compound, the half-maximal degradation concentration (DC50) by setting is: (Karpas-299 cells, 5 h treatment, read-out: IRAK4 in Karpas-299 (5 h) DC50) 4.6 nM; under setting [2], 0.8 nM.
